Measured values: patent publication US10874669B2 (WAYNE STATE UNIVERSITY, priority 2018, dated 2020)
“Also recorded” adds a separate entry of the source.

Tests used:
[1] = target: α-syn (Homo sapiens (Human), UniProt P37840); details: previously shown; cited from earlier work
[2] = test system: PC12 cells; details: previously shown; cited from earlier work
[3] = target: human DA D2 receptors (Homo sapiens (Human), UniProt P14416); assay: [35S]GTPγS binding stimulation, human D2 receptors in CHO cells; type: biochemical
[4] = target: cloned rat D2L receptors (Rattus norvegicus (Rat), UniProt P61169); assay: [3H]spiroperidol competition binding, rat D2L receptors in HEK-293 cells; details: rat D2 in HEK-293 cells; values of Table 3
From the text: (§1) All these procedures were described by us previously.

[5] = test system: PC12 cells; assay: DCFDA fluorescence assay of intracellular ROS induced by 6-OHDA; type: cell-based, rat; details: 20 μM, 24 h pretreatment, then 75 μM 6-OHDA 1 h
Experimental: Experimental detection of reactive oxygen species (ROS) produced by 6-OHDA was carried out by DCFDA assay. 6-OHDA, a well known neurotoxin, produces oxidative stress similar to what is observed in PD and the mechanism of neurotoxicity of 6-OHDA takes place via its auto-oxidation and subsequent generation of hydrogen peroxide. DCFDA is a non-fluorogenic dye but in the presence of ROS, it is oxidized to produce DCF which produces florescence. We have previously shown that 6-OHDA causes cell death in a dose-dependent manner. We chose 75 μM 6-OHDA as we have shown that this dose induces 40-50% cell death. […] However, the test compounds could dose dependently decrease the production of ROS induced by 6-OHDA (75 μM) in PC12 cells. In this regard, highest dose of all the three compounds was the most efficacious in producing significant antioxidant effect.
(§2) PC12 cells (ATCC CRL1721.1, Manassas, Va., USA), a rat adrenal pheochromocytoma cell line, were cultured in T-75 flasks (Greiner Bio One, Frickenhausen, Germany) and maintained in RPMI 1640 medium supplemented with 10% heat inactivated horse serum, 5% fetal bovine sérum, 100 U/ml penicillin, and 100 μg/mL streptomycin at 37° C. in 95% air/5% CO2. […]
PC12 cells were plated at 30,000 cells/well density in 100 μL media in 96-well black plates and incubated at 37° C. under 5% CO2 atmosphere for 24 h. […] After incubation for 1 h, the fluorescence was measured using spectrophotometer fluorescence generated microplate reader (Biotek Epoch, Winooski, Vt., USA) at excitation 497 nm and emission at 527 nm. […] The specific fluorescence emission was calculated after subtraction of the DCFDA untreated control cells from the DCFDA treated cells for both the background and 1 h treatment conditions. This was followed by the division of the 1 h treatment data by the background activity which was determined from vials before treatment with 6-OHDA, to derive the final data point.

[6] = test system: PC12 cells; assay: MTT cell viability, compounds alone; type: cell-based, rat; details: 0.01-30 μM, compared to untreated controls
Experimental: (§3) To investigate the neuroprotection property of the selected target molecules (−)-91b, (−)-95a and (−)-95c against 6-OHDA-induced cytotoxicity, we used dopaminergic rat adrenal Pheochromocytoma PC12 cells. As reported above, treatment of PC12 cells with 6-OHDA at 75 μM for 24 h produced ˜50% loss in cells viability and this concentration was used in subsequent experiments. […] However, (−)-95a produced some incremental toxicity starting at 20 μM dose (FIG. 4B). The potential neuroprotective effects of (−)-91b, (−)-95a and (−)-95c against 6-OHDA-induced toxicity were evaluated next. […] At those concentration both drugs increased cell survival by ˜20% compared to 6-OHDA (75 μM) treated alone (FIGS. 4D and 4F), indicating neuroprotective effect of these drugs. […] This could be due to the fact that the compound by itself produced toxicity to the cells at doses ≥20 μM and the presence of 6-OHDA enhanced the toxicity (FIG. 4B).
as §2, with “serum,” for “sérum,”, “CO2. Stock solutions of (−)-91b, (−)-95a, (−)-95c, and 6-hydroxydopamine (6-OHDA) were prepared in dimethylsulfoxide (DMSO) and aliquots were stored at −20° C. and −80° C., respectively.” for “CO2.”
PC12 cells were plated at 17000 cells/well density in 100 μL of media in 96-well plates and incubated at 37° C. under 5% CO2 atmosphere for 24 h. […] The absorbance was measured on a microplate reader (Biotek Epoch, Winooski, Vt., USA) at 570 nm with background correction performed at 690 nm. Data from at least three experiments were analyzed using GraphPad software (version 6, San Diego, Calif., USA). Cell viability was defined as […] compared to untreated controls.

[7] = test system: reserpine-induced hypolocomotion in rats; assay: Reversal of reserpine-induced hypolocomotion in rats; details: 10 μMol/kg, ip
Experimental: In this model depletion of catecholamines by reserpine results in catalepsy in rats.
The following commercially available drug was used in the experiment: reserpine hydrochloride (Alfa Aesar). […] The compounds for this study were administered in a volume of 0.1-0.2 mL for subcutaneous administration and 0.5-0.7 ml for interaperitoneal administration into each rat.
In rodent studies, animals were male and female Sprague-Dawley rats from Harlan (Indianapolis, Ind.) weighing 220-225 g unless otherwise specified. Animals were maintained in sawdust-lined cages in a temperature and humidity controlled environment at 22±1° C. and 60±5% humidity, respectively. A 12 h light/dark cycle was maintained, with lights on from 6:00 a.m. to 6:00 p.m. They were group-housed with unrestricted access to food and water. All experiments were performed during the light component.
Reserpine (5.0 mg/kg, sc) was administered 18 h before the injection of drug or vehicle. The rats were placed individually in the chambers for 1 h for acclimatization before administration of the test drugs or vehicle. Immediately after administration of drug or vehicle, animals were individually placed in Opto-Varimex 4 animal activity monitor chamber (Columbus Instruments, Ohio, USA) to start measuring locomotor activity. Locomotion was monitored for 6 h. […] The data were presented as horizontal activity (HACTV). […] The data were analyzed by one-way analysis of variance (ANOVA) followed by Dunnett's post hoc test.

[8] = test system: PC12 cells; assay: MTT neuroprotection against 6-OHDA-induced toxicity; type: cell-based, rat
Experimental: as §3
PC12 cells (ATCC CRL1721.1, Manassas, Va., USA), a rat adrenal pheochromocytoma cell line, were cultured in T-75 flasks (Greiner Bio One, Frickenhausen, Germany) and maintained in RPMI 1640 medium supplemented with 10% heat inactivated horse serum, 5% fetal bovine serum, 100 U/ml penicillin, and 100 μg/mL streptomycin at 37° C. in 95% air/5% CO2. Stock solutions of (−)-91b, (−)-95a, (−)-95c, and 6-hydroxydopamine (6-OHDA) were prepared in dimethylsulfoxide (DMSO) and aliquots were stored at −20° C. and −80° C., respectively. For all experiments assessing neuroprotective effects of the test compounds, PC12 cells were pretreated with indicated concentrations of (−)-91b, (−)-95a and (−)-95c for 24 h and then treated with 75 μM 6-OHDA for another 24 h. The control cells were treated with above media containing 0.01% DMSO only.
PC12 cells were plated at 17000 cells/well density in 100 μL of media in 96-well plates and incubated at 37° C. under 5% CO2 atmosphere for 24 h. Cells were treated with varying concentrations of the test compounds to determine their direct effect on cell viability. Neuroprotection experiments were conducted by treating cells for 24 h with varying concentrations of (−)-91b, (−)-95a and (−)-95c. Then the drug containing media was replaced with fresh culture media followed by treatment with 75 μM of 6-OHDA alone for an additional 24 h under the same condition. After incubation for 24 h, 5 mg/mL MTT solution (prepared in Dulbecco's phosphate-buffered saline) was added to the cells (to a final concentration of 0.5 mg/mL) and the plates were further incubated at 37° C. in 95% air/5% CO2 atmosphere for 3-4 h to produce dark-blue formazan crystals. Afterward, the plates were centrifuged at 450 g for 10 min and the supernatants were carefully removed. Formazan crystals were dissolved by adding 100 μL of methanol:DMSO (1:1) mixture to each well and shaking gently at 400 rpm for 30 min at room temperature on a Thermomix R shaker (Eppendorf, Hamburg, Germany). The absorbance was measured on a microplate reader (Biotek Epoch, Winooski, Vt., USA) at 570 nm with background correction performed at 690 nm. Data from at least three experiments were analyzed using GraphPad software (version 6, San Diego, Calif., USA). Cell viability was defined as […] compared to untreated controls.

[9] = target: human DA D3 receptors (Homo sapiens (Human), UniProt P35462); assay: [35S]GTPγS binding stimulation, human D3 receptors in CHO cells; type: biochemical
[10] = target: cloned rat D3 receptors (Rattus norvegicus (Rat), UniProt P19020); assay: [3H]spiroperidol competition binding, rat D3 receptors in HEK-293 cells; details: rat D3 in HEK-293 cells; values of Table 3
Experimental: A well established radioligand competition assay was carried out to evaluate binding affinity of the test compounds and were compared with that of the reference agent (S)-5-OH-DPAT (Table 3). Binding affinity to rat DA D2 and D3 receptors expressed in HEK-293 cells was determined as described by us previously. […] This indicated highest tolerance of the 4-substituted carbazole derivative for interaction with the D2 and D3 receptors.
as §1

[11] = compared with maximum stimulation by full agonist DA

Chain of human DA D2 receptors (P14416 whole entry): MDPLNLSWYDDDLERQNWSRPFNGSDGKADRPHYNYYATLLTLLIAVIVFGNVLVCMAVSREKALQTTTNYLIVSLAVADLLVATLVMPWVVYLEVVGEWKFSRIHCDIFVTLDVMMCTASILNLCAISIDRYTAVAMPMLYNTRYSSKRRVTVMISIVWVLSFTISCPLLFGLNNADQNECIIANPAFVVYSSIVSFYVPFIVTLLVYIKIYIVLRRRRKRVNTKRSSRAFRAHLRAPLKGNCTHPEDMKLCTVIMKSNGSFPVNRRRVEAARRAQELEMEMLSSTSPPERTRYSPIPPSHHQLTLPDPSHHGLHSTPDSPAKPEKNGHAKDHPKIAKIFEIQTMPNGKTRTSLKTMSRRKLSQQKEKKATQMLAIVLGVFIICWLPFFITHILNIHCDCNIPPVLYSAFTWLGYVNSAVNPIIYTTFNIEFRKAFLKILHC
Chain of human DA D3 receptors (P35462 whole entry): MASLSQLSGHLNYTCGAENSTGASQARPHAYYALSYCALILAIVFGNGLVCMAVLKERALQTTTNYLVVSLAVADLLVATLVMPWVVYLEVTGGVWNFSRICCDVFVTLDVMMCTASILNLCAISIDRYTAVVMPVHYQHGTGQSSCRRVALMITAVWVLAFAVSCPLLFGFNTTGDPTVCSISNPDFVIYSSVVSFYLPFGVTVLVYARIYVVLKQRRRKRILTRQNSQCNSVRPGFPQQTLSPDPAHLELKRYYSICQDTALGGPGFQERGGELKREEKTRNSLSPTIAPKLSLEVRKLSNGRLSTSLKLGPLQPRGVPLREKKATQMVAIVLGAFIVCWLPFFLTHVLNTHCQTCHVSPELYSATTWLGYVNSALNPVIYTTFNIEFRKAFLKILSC
Chain of cloned rat D2L receptors (P61169 whole entry): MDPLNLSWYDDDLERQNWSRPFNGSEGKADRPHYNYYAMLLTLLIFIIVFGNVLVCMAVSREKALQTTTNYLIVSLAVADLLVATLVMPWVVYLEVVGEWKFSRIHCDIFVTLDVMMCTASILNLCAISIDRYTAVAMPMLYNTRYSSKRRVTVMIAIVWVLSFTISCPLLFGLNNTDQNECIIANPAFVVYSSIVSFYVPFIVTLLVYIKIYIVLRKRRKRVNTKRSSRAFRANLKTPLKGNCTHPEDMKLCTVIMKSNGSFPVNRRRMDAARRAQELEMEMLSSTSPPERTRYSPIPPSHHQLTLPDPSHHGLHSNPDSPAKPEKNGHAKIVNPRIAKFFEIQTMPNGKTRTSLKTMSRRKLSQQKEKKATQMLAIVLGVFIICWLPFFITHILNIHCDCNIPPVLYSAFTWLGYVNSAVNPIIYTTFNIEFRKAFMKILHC
Chain of cloned rat D3 receptors (P19020 whole entry): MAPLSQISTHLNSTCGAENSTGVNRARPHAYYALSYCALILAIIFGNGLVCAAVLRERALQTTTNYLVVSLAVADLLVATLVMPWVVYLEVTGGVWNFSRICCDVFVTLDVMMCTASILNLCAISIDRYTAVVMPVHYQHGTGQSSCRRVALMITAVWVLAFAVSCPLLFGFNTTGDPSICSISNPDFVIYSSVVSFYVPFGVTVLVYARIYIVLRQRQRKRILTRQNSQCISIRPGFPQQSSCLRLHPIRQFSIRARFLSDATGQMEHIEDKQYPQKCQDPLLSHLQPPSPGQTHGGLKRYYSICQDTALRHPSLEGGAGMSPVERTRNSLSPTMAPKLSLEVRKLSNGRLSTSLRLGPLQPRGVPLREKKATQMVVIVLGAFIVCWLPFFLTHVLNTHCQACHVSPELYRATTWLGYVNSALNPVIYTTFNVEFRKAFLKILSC

For `CCCN(CCC)C1CCc2c(O)cccc2C1` (stereo not shown) [Compound 5-OHDPAT, 5-hydroxy-2-(dipropylamino)tetralin], the “decreasing ThT fluorescence, compared to hybrid agonist” value [1] is given as “far less effective” and the “reducing toxicities of α-syn aggregates, compared to hybrid agonist” value [2] is given as “far less effective”.
`CCCN(CCN1CCN(c2cccc3[nH]c4ccccc4c23)CC1)[C@H]1CCc2c(O)cccc2C1` [Compound (−)-95c, (S)-6-((2-(4-(9H-carbazol-4-yl)piperazin-1-yl)ethyl)(propyl)amino)-5,6,7,8-tetra-hydronaphthalen-1-ol] showed an EC50 ([3]; CHO cells, read-out: EC50 (GTPγS), D2) of 2.29 nM, an Emax [3, 11] of 74 to 88% and a Ki [4] of 16.9 nM. The “reduction in ROS” value [5] was 36%, the “cell viability, compound alone” value [6] was “no cells loss” and the “duration of locomotor activation” value ([7]; locomotion monitored for 6 h) was “significant enhancement of locomotion for the duration of the study of 6 h”. The “reversal of reserpine-induced akinesia / hypolocomotion (horizontal activity)” value ([7]; reserpine 5 mg/kg sc, 18 h pretreatment, rats) was “significantly reversed akinesia; also recorded: significantly different”, the “concentration of greatest protective effect” value ([8]; 24 h pretreatment, then 75 μM 6-OHDA 24 h) was 20 µM and the “increase in cell survival compared to 6-OHDA treated alone” value ([8]; at concentration of greatest protective effect, 75 μM 6-OHDA) was ~20%. For the same compound, the EC50 ([9]; CHO cells, read-out: EC50 (GTPγS), D3) was 0.22 nM, the Emax [9, 11] was 74 to 88% and the Ki [10] was 0.36 nM.
In the case of `CCCN[C@H]1CCc2nc(N)sc2C1` [Pramipexole], the “decreasing ThT fluorescence, compared to hybrid agonist” value [1] is given as “far less effective” and the “reducing toxicities of α-syn aggregates, compared to hybrid agonist” value [2] is given as “far less effective”.
